Measurements taken from patent US12616687B2, “Treatment of viral infection, disease or disorder using a selective sir agonist” (Prilenia Neurotherapeutics Ltd., priority 2020, dated 2026).
pKi: −log10 of the molar value. Where “and” joins values, the source holds several entries; their conditions need not be identical. Equal entries are not always repeated. Entries after “also recorded” stand apart in the source; their conditions may differ. Where two headings read alike, the source gives them in different places.

Columns and labels:
[1] = system: YAC128 HD striatal neurons; experiment: mitochondrial ROS (H2O2, MitoPY1) in YAC128 HD striatal neurons; format: cell-based, mouse; conditions: Ant A 2 μM
Description: YAC128 is a mouse model of Huntington's Disease (HD), Striatal neurons from wt or YAC128 were treated or not with 1 μM pridopidine and incubated with MitoPY1 fluorescence probe. The mitochondrial respiration inhibitor Antimycin A (Ant A, 2 μM) was used to induce release of Mitochondrial H2O2 and oxidative stress. Mitochondrial H2O2 was recorded in spinning disk confocal before and after administration of Ant A (n=4, considering ˜20 cells/condition).
Striatal neurons from YAC128 HD mice were treated with 1 μM pridopidine prior to induction of ROS production by the mitochondrial respiration inhibitor antimycin A (Ant A).

[2] = at the concentration showing anti-viral activity; cited from earlier work
[3] = system: lymphoblasts from HD patients; experiment: mitochondrial membrane potential (TMRE) in control and S1R-KD HD lymphoblasts; format: cell-based, human
Description: Cells were treated with pridopidine 5 μM, then challenged with 0.1 mM H2O2.

[4] = biological target: T1, S1R (Homo sapiens, UniProt Q99720); conditions: cited from earlier work
T1 sequence (Q99720 whole entry): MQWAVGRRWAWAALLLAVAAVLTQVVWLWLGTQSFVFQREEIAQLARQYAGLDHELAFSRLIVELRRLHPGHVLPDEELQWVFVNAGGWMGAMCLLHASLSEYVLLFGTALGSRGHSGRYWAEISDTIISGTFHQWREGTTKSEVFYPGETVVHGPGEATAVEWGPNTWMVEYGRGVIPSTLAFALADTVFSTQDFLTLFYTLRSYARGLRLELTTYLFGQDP

[5] = biological target: S2R (Homo sapiens, UniProt Q5BJF2); conditions: cited from earlier work
Sequence of S2R (Q5BJF2 whole entry): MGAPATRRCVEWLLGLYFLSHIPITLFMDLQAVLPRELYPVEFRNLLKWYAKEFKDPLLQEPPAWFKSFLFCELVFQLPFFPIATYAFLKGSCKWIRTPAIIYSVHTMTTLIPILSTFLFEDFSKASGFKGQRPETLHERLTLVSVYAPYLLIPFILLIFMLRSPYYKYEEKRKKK

[6] = system: SARS-CoV-2; conditions: viral titer assay; cited from earlier work
[7] = system: Striatal WT and YAC128 (HD) neurons; conditions: 24 h; for mitochondrial membrane potential (MMP) in HD (YAC128) neurons: 0.1 and 1 μM
Excerpt: The role of S1R in regulating mitochondrial membrane potential (MMP) was studied in striatal neurons from wild-type (WT) control and YAC128 HD mice.

[8] = system: interferon-stimulated genes (ISGs)
[9] = system: XBP1s; conditions: myc-Htt96Q cells, 3 μM (p<0.01)
[10] = system: ATF4
Description: (§1) Cells expressing myc-Htt96Q (mutant Htt) or myc-Htt20Q (wt Htt) were treated with pridopidine 3 uM. Immunoblots were reacted with anti-ATF4 (FIG. 7A), anti-CHOP (FIG. 7B) and anti-GADD34 (FIG. 7C), quantified and normalized with anti-actin or anti-tubulin as loading controls.

[11] = system: GADD34
Description: as §1

[12] = system: CHOP
Description: as §1

[13] = system: ATF6; conditions: myc-Htt96Q cells
Description: Cells expressing myc-Htt96Q (mutant Htt) were treated with pridopidine 0.03 and 3 μM. Immunoblots were reacted with anti-ATF6 quantified and normalized with anti-tubulin as loading controls.

[14] = biological target: T1, S1R
[15] = system: eIF2α-phosphorylation; experiment: eIF2α-phosphorylation, ER stress induced by thapsigargin; format: cell-based; conditions: 2 μg/ml thapsigargin
Description: HEK293 cells transfected with Htt20Q-mCherry (wt HTT) were treated with 2 μg/ml thapsigargin to induce ER stress.

[16] = HEK293, Htt96Q-induced ER stress
[17] = pridopidine 5 μM, 24 h, 0.1 mM H2O2

In the case of `CCCCCC[C@H]1C(=O)O[C@H](C)[C@H](NC(=O)c2cccc(NC=O)c2O)C(=O)O[C@@H](C)[C@@H]1OC(=O)CC(C)C` [Ant A, Antimycin A, reference compound], the “increase of mitochondrial H2O2 / ROS production” value ([1]; untreated YAC128 neurons) was about 2 fold.
For `CN1CCC[C@@H]1CCO[C@](C)(c1ccccc1)c1ccc(Cl)cc1` [Clemastine], the “reduction in cell viability / cell death” value [2] is listed as about 40%.
In the case of `OO` [Compound H2O2, H2O2, reference compound], the “reduction of MMP in S1R+/+ cells” value ([3]; 0.1 mM H2O2, HD lymphoblasts) was 25% and the “reduction of MMP in S1R KD cells” value ([3]; 0.1 mM H2O2, HD lymphoblasts, S1R knocked down ~83%) was 75%.
In the case of `O=C(CCCN1CCC(O)(c2ccc(Cl)cc2)CC1)c1ccc(F)cc1` [Haloperidol], the “reduction in cell viability / cell death” value [2] is given as about 30%.
For `CCN(CCO)CCCC(C)Nc1ccnc2cc(Cl)ccc12` (stereo not drawn) [hydroxychloroquine], the pKi [4] is listed as 6.70, the “reduction in cell viability / cell death” value [2] is listed as about 30% and the pKi [5] is listed as 6.10. The “concentration at which anti-viral activity was demonstrated” value [6] was about 2 µM.
For `CCCN1CCC(c2cccc(S(C)(=O)=O)c2)CC1` [pridopidine, 4-[3-(methylsulfonyl)phenyl]-1-propyl-piperidine], the “mitochondrial ROS (H2O2) production after Ant A” value ([1]; YAC128 striatal neurons, pridopidine 1 μM) was “robust and significant reduction of ROS production by mitochondria back to normal levels; also recorded: inhibits H2O2 release and oxidative stress”, the “mitochondrial membrane potential (MMP) in WT neurons” value ([7]; 0.1 μM) was “trend towards increasing MMP” and the “mitochondrial membrane potential (MMP) in WT neurons” value ([7]; 1 μM) was “significant increase”. For the same compound, the “mitochondrial membrane potential (MMP) in HD (YAC128) neurons” value [7] was “significant increase”, the “mitochondrial membrane potential (MMP) in HD (YAC128) neurons” value ([7]; listed as Pridopidine) was “significantly restores the impaired MMP” and the “mitochondrial membrane potential (MMP) in wt neurons” value ([7]; concentration not stated (FIG. 11 legend)) was “enhances MMP”. For the same compound, the “reduction of expression of ISGs (IFIT1, EIF2AK2, IRF7 indexed together)” value [8] was 30-50%, the “reduction in XBP1s mRNA levels” value [9] was 25% and the “ATF4 protein level after treatment” value [10, 16] was “normal wt levels”. For the same compound, the “reduction of ATF4 levels” value ([10]; myc-Htt96Q cells, 3 μM (p<0.05)) was about 4.5 fold, the “GADD-34 protein level after treatment” value [11, 16] was “normal wt levels” and the “reduction of GADD-34 levels” value ([11]; myc-Htt96Q cells, 3 μM (p<0.01)) was about 2.5 fold. The “CHOP protein level after treatment” value [12, 16] was “normal wt levels”, the “reduction of CHOP levels” value ([12]; myc-Htt96Q cells, 3 μM) was about 2 fold and the “reduction of ATF6” value ([13]; 0.03 μM) was about 10%. For the same compound, the “reduction of ATF6” value ([13]; 3 μM) was 35% and ~30%, the “fold higher affinity for the S1R vs the S2R” value [14] was 95 fold and the “MMP after H2O2 challenge in S1R KD cells” value [3, 17] was “abolished and not”. For the same compound, the “MMP after H2O2 challenge in S1R+/+ cells” value [3, 17] was “completely restored” and the “eIF2α-p (ratio of eIF2α-P/eIF2α)” value ([15]; HEK293, wt HTT, pridopidine 3 μM, 8 hours) was “caused a reduction; also recorded: reduces p-eIF2α levels”.
In the case of `C/C=C(/C)C(=O)O[C@H]1C(C)=C2[C@H]([C@@H]1OC(=O)CCCCCCC)[C@@](C)(OC(C)=O)C[C@H](OC(=O)CCC)[C@@]1(O)[C@H]2OC(=O)[C@@]1(C)O` [thapsigargin, reference compound], the “increase in phosphorylated eIF2α (eIF2α-p)” value ([15]; HEK293, myc-Htt20Q) was 70%.
